According to PMC5122408, “High throughput chemical library screening identifies a novel p110-δ inhibitor that potentiates the anti-myeloma effect of bortezomib” (Oncotarget, 2016):

Experiments:
VPS34 = VPS34 (Homo sapiens, UniProt Q8NEB9); assay: Kinase inhibitory profile; assay type: biochemical; conditions: Class III PI3Ks; 10-point concentration assays
p110-β = p110-β (Homo sapiens, UniProt P42338); assay: Kinase inhibitory profile / PIP3 production
Method: To directly assess PI3K activity, PI3K was isolated by immunoprecipitation using an antibody to the p85 adapter subunit and the ability of the co-precipitated catalytic p110 subunit to convert PIP2 to PIP3 in a kinase reaction assessed by measuring the amount of PIP3 generated using a competitive ELISA [40, 41]. […] Lysates were centrifuged at 13,000 × rpm for 10 min and supernatants stored at −80°C. Frozen lysates were thawed and PI3K immunoprecipitated with 5 μl anti-PI3K p85 (Cell Signaling Technology, Danvers, MA) for 1 h at 4°C, followed by the addition of 60 μl of a 50% slurry of Protein A agarose beads for 1 h at 4°C. The immunoprecipitate was collected by centrifugation at 13,000 × rpm for 10 sec, washed 3 times in buffer A + 1% NP40, thrice with 0.1 M Tris-HCl, pH 7.4, 5 mM LiCl, 0.1 mM Na orthovanadate and twice with 10 mM Tris-HCl, pH 7.4, 150 mM NaCl, 5 mM ethylenediaminetetraacetic acid (EDTA), 0.1 mM Na orthovanadate. […] Reactions were incubated for 3 h at 37°C with 40 pmol PIP2 (Echelon Biosciences, Salt Lake City, UT). Reactions were stopped with EDTA (5 mM) and centrifuged at 13,000 × rpm at 4°C. Supernatants were transferred to a microtitre plate for a competitive ELISA (Echelon Biosciences) to quantify PIP3 generated. […] Absorbance was measured (450 nm) and PIP3 quantified using a standard curve generated with experimental samples and plotted on a log scale.

AKT = assay: Immunoblot of AKT phosphorylation in MM cells; assay type: cell-based; conditions: DT97 500 nm or 1 uM for 48 h
[1] = test system: Myeloma/ Leukemia/ Lymphoma; assay: NCI-60 panel cell growth screen (Figure 6); assay type: cell-based, human
A549 = assay: NCI-60 panel cell growth screen; assay type: cell-based, human; conditions: A549 (NSCLC)
ERBB4 = ERBB4 (Homo sapiens, UniProt Q15303); assay: Kinase inhibitory profile; assay type: biochemical; conditions: Other Clinically-relevant Kinases; 10-point concentration assays
Sequence of ERBB4 (Q15303 26-1308): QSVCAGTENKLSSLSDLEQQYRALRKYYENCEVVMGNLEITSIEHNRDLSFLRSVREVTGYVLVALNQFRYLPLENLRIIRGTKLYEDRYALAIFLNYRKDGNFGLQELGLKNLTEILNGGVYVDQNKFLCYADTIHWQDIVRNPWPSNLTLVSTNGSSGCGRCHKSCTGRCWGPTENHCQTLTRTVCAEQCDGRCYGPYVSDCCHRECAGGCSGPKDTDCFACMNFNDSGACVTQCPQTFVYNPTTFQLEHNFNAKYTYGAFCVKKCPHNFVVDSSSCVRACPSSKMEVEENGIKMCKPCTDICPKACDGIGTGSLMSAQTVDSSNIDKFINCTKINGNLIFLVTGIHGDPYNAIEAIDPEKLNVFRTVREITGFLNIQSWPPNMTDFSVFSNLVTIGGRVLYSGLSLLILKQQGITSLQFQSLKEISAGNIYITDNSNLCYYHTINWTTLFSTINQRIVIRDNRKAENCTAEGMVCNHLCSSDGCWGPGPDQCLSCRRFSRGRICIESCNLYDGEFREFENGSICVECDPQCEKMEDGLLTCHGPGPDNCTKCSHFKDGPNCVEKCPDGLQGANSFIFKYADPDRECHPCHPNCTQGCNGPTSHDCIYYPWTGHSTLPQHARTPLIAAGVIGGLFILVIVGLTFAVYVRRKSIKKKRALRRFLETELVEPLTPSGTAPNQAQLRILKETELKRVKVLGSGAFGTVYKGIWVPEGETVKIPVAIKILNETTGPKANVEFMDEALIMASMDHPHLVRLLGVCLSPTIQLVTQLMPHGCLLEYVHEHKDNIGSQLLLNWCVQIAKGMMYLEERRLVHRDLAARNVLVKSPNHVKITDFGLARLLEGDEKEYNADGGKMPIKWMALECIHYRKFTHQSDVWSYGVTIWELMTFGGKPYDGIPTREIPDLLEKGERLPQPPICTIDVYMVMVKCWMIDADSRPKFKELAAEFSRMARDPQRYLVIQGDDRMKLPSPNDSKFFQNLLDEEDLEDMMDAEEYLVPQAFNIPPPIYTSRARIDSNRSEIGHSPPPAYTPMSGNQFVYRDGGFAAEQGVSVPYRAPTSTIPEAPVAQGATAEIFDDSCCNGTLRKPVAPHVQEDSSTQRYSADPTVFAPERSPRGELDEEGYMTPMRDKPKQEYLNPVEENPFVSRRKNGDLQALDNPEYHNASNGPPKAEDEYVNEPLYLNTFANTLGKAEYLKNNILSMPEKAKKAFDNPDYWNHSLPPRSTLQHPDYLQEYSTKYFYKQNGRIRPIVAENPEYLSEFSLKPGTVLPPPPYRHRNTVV

DNA-PK = DNA-PK (Homo sapiens, UniProt P78527); assay: Kinase inhibitory profile; assay type: biochemical; conditions: Class IV PI3Ks; 10-point concentration assays
BMSCs = assay: XTT viability of BMSCs; assay type: cell-based; conditions: 72 h, XTT assay
NCI-H226 = assay: NCI-60 panel cell growth screen; assay type: cell-based, human; conditions: NCI-H226 (NSCLC)
PDGFR = assay: Kinase inhibitory profile; assay type: biochemical; conditions: Other Clinically-relevant Kinases; 10-point concentration assays
PKC2-α = PKC2-α (Homo sapiens, UniProt O00443); assay: Kinase inhibitory profile; assay type: biochemical; conditions: Class II PI3Ks; 10-point concentration assays
SR = assay: NCI-60 panel cell growth screen; assay type: cell-based, human; conditions: SR (Leukemia)
mTOR = mTOR (Homo sapiens, UniProt P42345); assay: Kinase inhibitory profile; assay type: biochemical; conditions: Class IV PI3Ks; 10-point concentration assays
IL-6 = IL-6 ELISA, MM cells co-cultured with BMSCs; assay type: cell-based, human
MAPK = assay: Kinase inhibitory profile; assay type: biochemical; conditions: Other Clinically-relevant Kinases; 10-point concentration assays
MM cells [2] = assay: XTT viability, MM cells (DT97 vs idelalisib); assay type: cell-based; conditions: parental and drug-resistant MM cells; 1 uM; 72 h; XTT assay
Method: Values represent the average of triplicate measurements. […] Values represent the average of triplicate measurements. […] Values represent the average of triplicate measurements.
Cells were plated, treated as indicated for 72 h and 2, 3-bis-(2-methoxy-4-nitro-5-sulfophenyl)-2H-tetrazolium-5-carboxanilide) added (Sigma-Aldrich) after activation with N-methyl dibenzopyrazine methyl sulfate (Sigma-Aldrich). Absorbance was measured and the effect on myeloma viability determined as previously described. Assays were performed in triplicate and the mean and standard deviation determined. Relative cell viability (mean ± SD) was calculated compared to readings from untreated cells.

MM cells [3] = assay: Transwell chemotaxis of CFSE-labeled MM cells toward BMSCs; assay type: cell-based; conditions: counted at 72 h
Description: BMSCs induce the migration and homing (chemotaxis) of MM cells to BM. […] MM cells were placed in the upper chamber separated from BMSCs in the lower chamber by a semi-permeable membrane. […] It appears that DT97 treatment prevents MM migration, in part, through the reduction of cytokine production.

HT29 = assay: NCI-60 panel cell growth screen; assay type: cell-based, human; conditions: HT29 (Colon cancer)
RPMI-8226 = assay: NCI-60 panel cell growth screen; assay type: cell-based, human; conditions: RPMI-8226 (Leukemia)
HCC-2998 = assay: NCI-60 panel cell growth screen; assay type: cell-based, human; conditions: HCC-2998 (Colon cancer)
ERK1/2 = assay: Immunoblot of ERK1/2 phosphorylation in MM cells; assay type: cell-based; conditions: DT97 500 nm or 1 uM for 48 h
HOP-62 = assay: NCI-60 panel cell growth screen; assay type: cell-based, human; conditions: HOP-62 (NSCLC)
NCI-H522 = assay: NCI-60 panel cell growth screen; assay type: cell-based, human; conditions: NCI-H522 (NSCLC)
[4] = test system: peripheral blood mononuclear cells (PBMCs); assay: Apoptosis (in situ cell death detection) in PBMCs; assay type: cell-based; conditions: Figure 5B
EKVX = assay: NCI-60 panel cell growth screen; assay type: cell-based, human; conditions: EKVX (NSCLC)
[5] = read-out: LC50 (the source's name)

Sequence of p110-β (P42338 whole entry): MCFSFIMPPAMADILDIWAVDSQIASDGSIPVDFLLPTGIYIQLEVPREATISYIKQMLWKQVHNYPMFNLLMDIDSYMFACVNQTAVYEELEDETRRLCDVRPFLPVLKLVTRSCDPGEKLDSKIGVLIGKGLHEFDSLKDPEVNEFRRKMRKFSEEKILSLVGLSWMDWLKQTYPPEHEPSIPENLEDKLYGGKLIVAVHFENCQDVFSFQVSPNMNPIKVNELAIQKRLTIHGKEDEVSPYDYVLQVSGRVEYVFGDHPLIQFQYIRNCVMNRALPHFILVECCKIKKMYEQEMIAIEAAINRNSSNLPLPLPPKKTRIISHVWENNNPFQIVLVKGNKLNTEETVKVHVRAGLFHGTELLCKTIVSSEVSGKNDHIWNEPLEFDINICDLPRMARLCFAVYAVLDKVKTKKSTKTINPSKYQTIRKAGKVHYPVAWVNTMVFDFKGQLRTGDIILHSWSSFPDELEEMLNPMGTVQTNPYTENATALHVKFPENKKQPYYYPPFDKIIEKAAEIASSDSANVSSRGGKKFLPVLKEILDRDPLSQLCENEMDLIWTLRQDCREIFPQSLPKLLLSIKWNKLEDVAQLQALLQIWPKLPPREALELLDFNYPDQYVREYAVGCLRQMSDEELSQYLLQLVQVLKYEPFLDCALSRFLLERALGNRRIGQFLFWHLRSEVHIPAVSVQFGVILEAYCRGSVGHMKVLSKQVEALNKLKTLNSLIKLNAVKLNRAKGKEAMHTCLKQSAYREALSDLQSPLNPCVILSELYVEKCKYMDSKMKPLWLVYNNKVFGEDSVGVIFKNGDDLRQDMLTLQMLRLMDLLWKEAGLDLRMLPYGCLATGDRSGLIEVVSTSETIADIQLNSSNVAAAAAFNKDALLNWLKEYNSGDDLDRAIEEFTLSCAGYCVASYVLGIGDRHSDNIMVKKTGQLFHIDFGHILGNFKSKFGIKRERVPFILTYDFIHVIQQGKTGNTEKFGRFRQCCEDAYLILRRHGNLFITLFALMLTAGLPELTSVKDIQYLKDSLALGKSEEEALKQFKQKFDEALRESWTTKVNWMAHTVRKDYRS
Sequence of p110-β (P27986 whole entry partner): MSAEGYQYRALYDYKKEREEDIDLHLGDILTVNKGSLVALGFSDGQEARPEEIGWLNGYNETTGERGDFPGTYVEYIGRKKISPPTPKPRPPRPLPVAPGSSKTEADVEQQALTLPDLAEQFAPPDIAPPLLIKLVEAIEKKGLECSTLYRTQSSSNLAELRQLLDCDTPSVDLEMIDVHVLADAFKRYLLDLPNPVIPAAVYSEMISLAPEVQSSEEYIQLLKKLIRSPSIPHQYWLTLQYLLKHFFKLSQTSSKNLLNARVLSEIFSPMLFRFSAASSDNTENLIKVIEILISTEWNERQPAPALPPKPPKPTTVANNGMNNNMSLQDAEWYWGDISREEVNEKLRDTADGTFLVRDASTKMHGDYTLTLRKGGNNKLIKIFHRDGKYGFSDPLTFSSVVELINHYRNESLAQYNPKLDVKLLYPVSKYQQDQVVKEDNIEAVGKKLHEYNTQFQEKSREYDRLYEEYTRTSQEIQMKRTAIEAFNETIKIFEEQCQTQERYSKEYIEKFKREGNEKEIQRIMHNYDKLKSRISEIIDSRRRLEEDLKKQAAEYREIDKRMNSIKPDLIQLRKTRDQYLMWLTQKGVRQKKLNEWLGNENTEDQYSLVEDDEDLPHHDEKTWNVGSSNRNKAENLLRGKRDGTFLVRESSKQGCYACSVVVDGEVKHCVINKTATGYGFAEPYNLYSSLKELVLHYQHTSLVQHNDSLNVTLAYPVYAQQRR
Sequence of VPS34 (Q8NEB9 whole entry): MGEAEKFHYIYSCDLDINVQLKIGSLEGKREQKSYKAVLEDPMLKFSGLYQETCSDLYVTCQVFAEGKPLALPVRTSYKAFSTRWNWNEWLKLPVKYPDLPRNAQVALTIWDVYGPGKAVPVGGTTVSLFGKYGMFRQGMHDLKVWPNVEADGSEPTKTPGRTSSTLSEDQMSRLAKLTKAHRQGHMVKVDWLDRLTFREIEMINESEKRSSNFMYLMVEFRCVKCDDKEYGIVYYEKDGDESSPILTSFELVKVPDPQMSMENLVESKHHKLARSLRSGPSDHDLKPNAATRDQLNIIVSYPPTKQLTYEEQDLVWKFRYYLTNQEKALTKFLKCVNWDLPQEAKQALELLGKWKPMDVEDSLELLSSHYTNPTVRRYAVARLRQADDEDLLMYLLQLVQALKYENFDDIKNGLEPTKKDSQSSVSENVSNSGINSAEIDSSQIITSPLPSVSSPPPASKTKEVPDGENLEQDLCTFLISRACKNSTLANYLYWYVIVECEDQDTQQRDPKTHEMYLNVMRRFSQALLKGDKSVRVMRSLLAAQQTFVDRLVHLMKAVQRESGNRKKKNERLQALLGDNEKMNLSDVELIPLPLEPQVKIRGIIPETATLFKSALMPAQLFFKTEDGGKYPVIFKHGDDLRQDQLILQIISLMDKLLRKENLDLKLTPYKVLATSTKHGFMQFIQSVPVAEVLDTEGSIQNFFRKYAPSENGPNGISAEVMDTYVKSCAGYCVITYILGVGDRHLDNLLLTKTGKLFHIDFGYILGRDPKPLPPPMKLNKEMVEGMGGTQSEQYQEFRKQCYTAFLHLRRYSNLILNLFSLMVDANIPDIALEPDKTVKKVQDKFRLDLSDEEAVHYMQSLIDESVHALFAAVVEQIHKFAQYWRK

For “N-[4-hydroxy-3-(8-quinolinylthio)-1-naphthyl]benzenesulfonamide [DT97]”, the “Inhibitory profile (kinase inhibition)” value (VPS34) was “none”, the “Inhibitory profile (kinase inhibition)” value (p110-β; Class I PI3Ks, 10-point concentration assays) was “none” and the “production of PIP3 (dose-dependent effect)” value (p110-β; p110-β isoform, Figure 4B) was “no effect”. The “phosphorylation of AKT at Ser308/Thr473” value (AKT) was “reduced the phosphorylation”, the IC50 [1] was about 0.45 µM and the GI50 (A549) was 0.747 µM. For the same substance, the TGI (A549) was 1.81E-5, the “Percent Growth” value (A549; log concentration −4.0) was −46% and the “Percent Growth” value (A549; log concentration −5.0) was 16%. For the same substance, the “Percent Growth” value (A549; log concentration −6.0) was 41%, the “Percent Growth” value (A549; log concentration −7.0) was 112% and the “Percent Growth” value (A549; log concentration −8.0) was 106%. The “Inhibitory profile (kinase inhibition)” value (ERBB4) was “+”, the “Inhibitory profile (kinase inhibition)” value (DNA-PK) was “+” and the viability (BMSCs) was “did not significantly reduce the viability”. For the same substance, the GI50 (NCI-H226) was 2.45 µM, the TGI (NCI-H226) was 2.54E-5 and the “Percent Growth” value (NCI-H226; log concentration −4.0) was −40%. For the same substance, the “Percent Growth” value (NCI-H226; log concentration −5.0) was 27%, the “Percent Growth” value (NCI-H226; log concentration −6.0) was 65% and the “Percent Growth” value (NCI-H226; log concentration −7.0) was 94%. For the same substance, the “Percent Growth” value (NCI-H226; log concentration −8.0) was 92%, the “Inhibitory profile (kinase inhibition)” value (PDGFR) was “none” and the “Inhibitory profile (kinase inhibition)” value (PKC2-α) was “none”. The GI50 (SR) was 0.426 µM, the TGI (SR) was 1.72E-5 and the “Percent Growth” value (SR; log concentration −4.0) was −15%. The “Percent Growth” value (SR; log concentration −5.0) was 5%, the “Percent Growth” value (SR; log concentration −6.0) was 13% and the “Percent Growth” value (SR; log concentration −7.0) was 113%. For the same substance, the “Percent Growth” value (SR; log concentration −8.0) was 109%, the CC50 (SR; [5]) was over 100 µM and the “Inhibitory profile (kinase inhibition)” value (mTOR) was “+”. The “production of Il-6” value (IL-6) was “induction was inhibited”, the “Inhibitory profile (kinase inhibition)” value (MAPK) was “+” and the viability (MM cells [2]) was “more potently than idelalisib”. For the same substance, the “migration of MM cells into the lower chambers with BMSCs” value (MM cells [3]) was “reduced the migration”, the GI50 (HT29) was 2.42 µM and the TGI (HT29) was 1.44E-5. The “Percent Growth” value (HT29; log concentration −4.0) was −44%, the “Percent Growth” value (HT29; log concentration −5.0) was 8% and the “Percent Growth” value (HT29; log concentration −6.0) was 76%. The “Percent Growth” value (HT29; log concentration −7.0) was 108%, the “Percent Growth” value (HT29; log concentration −8.0) was 103% and the CC50 (HT29; [5]) was over 100 µM. The GI50 (RPMI-8226) was 2.38 µM, the TGI (RPMI-8226) was 7.90E-6 and the “Percent Growth” value (RPMI-8226; log concentration −4.0) was −9%. For the same substance, the “Percent Growth” value (RPMI-8226; log concentration −5.0) was −10%, the “Percent Growth” value (RPMI-8226; log concentration −6.0) was 86% and the “Percent Growth” value (RPMI-8226; log concentration −7.0) was 92%. For the same substance, the “Percent Growth” value (RPMI-8226; log concentration −8.0) was 101%, the CC50 (RPMI-8226; [5]) was over 100 µM and the GI50 (HCC-2998) was 4.77 µM. For the same substance, the TGI (HCC-2998) was 1.91E-5, the “Percent Growth” value (HCC-2998; log concentration −4.0) was −82% and the “Percent Growth” value (HCC-2998; log concentration −5.0) was 32%. For the same substance, the “Percent Growth” value (HCC-2998; log concentration −6.0) was 88%, the “Percent Growth” value (HCC-2998; log concentration −7.0) was 106% and the “Percent Growth” value (HCC-2998; log concentration −8.0) was 105%. For the same substance, the CC50 (HCC-2998; [5]) was 52.4 µM, the “phosphorylation of ERK1/2 at Thre202/Tyr-204” value (ERK1/2) was “reduced the phosphorylation” and the GI50 (HOP-62) was 1.01 µM. The TGI (HOP-62) was 2.54E-5, the “Percent Growth” value (HOP-62; log concentration −4.0) was −37% and the “Percent Growth” value (HOP-62; log concentration −5.0) was 26%. For the same substance, the “Percent Growth” value (HOP-62; log concentration −6.0) was 50%, the “Percent Growth” value (HOP-62; log concentration −7.0) was 95% and the “Percent Growth” value (HOP-62; log concentration −8.0) was 93%. The GI50 (NCI-H522) was 2.12 µM, the TGI (NCI-H522) was 8.17E-6 and the “Percent Growth” value (NCI-H522; log concentration −4.0) was −48%. For the same substance, the “Percent Growth” value (NCI-H522; log concentration −5.0) was −7%, the “Percent Growth” value (NCI-H522; log concentration −6.0) was 68% and the “Percent Growth” value (NCI-H522; log concentration −7.0) was 95%. For the same substance, the “Percent Growth” value (NCI-H522; log concentration −8.0) was 95%, the apoptosis [4] was “did not induce apoptosis” and the GI50 (EKVX) was 1.01 µM. The TGI (EKVX) was 8.55E-6, the “Percent Growth” value (EKVX; log concentration −4.0) was −99% and the “Percent Growth” value (EKVX; log concentration −5.0) was −4%. For the same substance, the “Percent Growth” value (EKVX; log concentration −6.0) was 50%, the “Percent Growth” value (EKVX; log concentration −7.0) was 93% and the “Percent Growth” value (EKVX; log concentration −8.0) was 97%.
